pIC50: −log10 of the molar value.
Columns and labels:
A549 cells [1] = assay: Wound healing assay for migration; assay type: cell-based, human; conditions: 48 h
Protocol: The motility of cells was measured by wound healing assay. Cells were seeded into 6-well plates and cultured to 90-100% confluent after 24 h. Wounds were made in each well of 6-well plates using pipette tips. […] The migration of cells was visualized under a microscope (4 ×, Nikon, Japan) and photographed in different time points (0 and 48 h).

PC-9/GR cells = assay: Cell apoptosis assay (Annexin V-FITC/PI flow cytometry), PC-9/GR; assay type: cell-based, human; conditions: 72 h
Protocol: (§1) Briefly, aliquots of 2 × 10^5 cells were seeded into 6-well plates and incubated for 24 h at 37 °C. […] After trypsinization and gently washing cells once with medium, the cells were washed twice with cold PBS. The precipitation was resuspended by 400 μL of 1 × binding buffer, and then resuspended cells were transferred into new 1.5 mL EP tubes. Then 3 μL of Annexin V-FITC and 5 μL of propidium iodide were added to the resuspended cells with further incubation at room temperature for 15 min in the dark. The analysis was done on Guava easyCyte (USA) and FlowJo 7.6 software.

pY705-STAT3 = assay: Western blot of pY705-STAT3 in A549 cells; assay type: cell-based, human
Protocol: (§2) Cells or tumor tissue were lysed with RIPA buffer (Beyotime, Shanghai, China) supplemented with protease inhibitors (Beyotime, Shanghai, China) and phosphatase inhibitors (Bimake, USA). Lysates were denatured by heating for 5 min at 99 °C and loaded on 4-10% SDS-polyacrylamide gel electrophoresis. Then the proteins were transferred to polyvinylidene fluoride (PVDF) membranes (Millipore, USA). The membranes were blocked and probed with primary antibodies and secondary HPR-conjugated antibodies. At last the membranes were detected by chemiluminescence (Tanon, Shanghai, China). For co-immunoprecipitation experiments, 293T cells were plated and grew to about 80% confluency, then co-transfected with plasmids of HA-STAT3 and Flag-STAT3 using Lipofectamine 2000. After 24 h, cells were treated with different concentrations of W2014-S for following 24 h, and stimulated with IL-6 (100 ng/mL) for 1 h. Cells were lysed with IP RIPA buffer (Beyotime, Shanghai, China) supplemented with protease inhibitors (Beyotime, Shanghai, China) and phosphatase inhibitors (Bimake, America), and lysates were cultured with Anti-flag Affinity Gel (B23102, Bimake, USA) overnight at 4 ℃. The gel was washed by PBST for three times and added 1×loading buffer and denatured by heating for 5 min at 99 ℃. Then the proteins were resolved on SDS-PAGE, transferred to PVDF membranes and analysed with immunoblotting.

PC-9 cells = assay: Cell viability assay (CCK-8), PC-9; assay type: cell-based; conditions: Homo sapiens, PC-9, 72 h, read-out: IC50 cell proliferation
Protocol: Cell proliferation was measured using the Cell Counting Kit-8 (CCK-8, B34304, Bimake, USA). A549 (2 × 10^3/100 μL/well), PC-9 (3 × 10^3/100 μL/well) or PC-9/GR cells (3 × 10^3/100 μL/well) were plated into each well of 96-well plates (Costar, USA). […] Then, 10 μL of CCK-8 was added to each well, and cells were incubated for 1-4 h until the color of untreated controls turned to orange. The absorbance (A) was measured by a microplate reader (FLUOstar Omega-ACU, USA) at test and reference wavelengths of 450 nm. The percentage of growth was calculated as Cell viability (%) = [A (Compound +) - A (Blank) ] / [A (Compound -) - A (Blank) ] × 100%. Cell viability meant proliferation of cells. Each experiment was done at least in triplicate, and thrice independently.

STAT3-STAT3 dimerization = STAT3-STAT3 dimerization (Homo sapiens, UniProt P40763); assay: Co-immunoprecipitation of HA-STAT3 and Flag-STAT3 in A549 cells; assay type: cell-based; set-up: expressed in transfected cells; host or cells: A549; conditions: A549, 0, 0.3, 1 μM, 24 h
Protocol: as §2

A549 cells [2] = assay: Cell apoptosis assay (Annexin V-FITC/PI flow cytometry), A549; assay type: cell-based, human; conditions: A549, 1.0 μM, 72 h
Protocol: as §1

STAT3 = assay: STAT3-dependent dual-luciferase reporter assay in 293T cells; assay type: cell-based, human; conditions: 293T, 0, 0.3, 1 μM, 24 h
Protocol: The STAT3-dependent luciferase reporter, pGL3-STAT3, contained seven copies of the STAT3-specific binding sequence ([…]) in the C-reactive protein gene promoter, and drove firefly luciferase expression. The new construct was confirmed by sequencing. For luciferase studies, 293T cells or A549 cells in 96-well plates were transiently co-transfected with the appropriate plasmids (10 ng TKRL as internal control vector for normalizing and 50 ng of pGL3-STAT3) using Lipofectamine 2000 (11668500, Invitrogen, Carlsbad, CA, USA) which was following the manufacturer's protocol. After 24 h, HEK-293T cells were treated with 0-1 μM W2014-S for 24 h, and stimulated with IL-6 (100 ng/mL, PeproTech) for 1 h or EGF (50 ng/mL, PeproTech) for 30 min. Subsequently, cytosolic extracts were prepared for dual-luciferase reporter assay.

[3] = test system: pY705-STAT3 and pY1068-EGFR; assay: Western blot of pY705-STAT3 and pY1068-EGFR in PC-9/GR cells; assay type: cell-based, human; conditions: W2014-S 1 μM and/or gefitinib 2 μM, 24 h
Protocol: Cells or tumor tissue were lysed with RIPA buffer (Beyotime, Shanghai, China) supplemented with protease inhibitors (Beyotime, Shanghai, China) and phosphatase inhibitors (Bimake, USA). Lysates were denatured by heating for 5 min at 99 °C and loaded on 4-10% SDS-polyacrylamide gel electrophoresis. Then the proteins were transferred to polyvinylidene fluoride (PVDF) membranes (Millipore, USA). The membranes were blocked and probed with primary antibodies and secondary HPR-conjugated antibodies. At last the membranes were detected by chemiluminescence (Tanon, Shanghai, China). […] Cells were lysed with IP RIPA buffer (Beyotime, Shanghai, China) supplemented with protease inhibitors (Beyotime, Shanghai, China) and phosphatase inhibitors (Bimake, America), and lysates were cultured with Anti-flag Affinity Gel (B23102, Bimake, USA) overnight at 4 ℃. The gel was washed by PBST for three times and added 1×loading buffer and denatured by heating for 5 min at 99 ℃. Then the proteins were resolved on SDS-PAGE, transferred to PVDF membranes and analysed with immunoblotting.

Bcl-2, Bcl-xL and c-Myc = assay: Western blot of STAT3 downstream genes in A549 and PC-9 cells; assay type: cell-based, human; conditions: A549 and PC-9, 0-3 μM, 24 h
Protocol: as §2

[4] = gefitinib 2 μM and/or W2014-S 1 μM

Chain of STAT3-STAT3 dimerization (P40763 whole entry): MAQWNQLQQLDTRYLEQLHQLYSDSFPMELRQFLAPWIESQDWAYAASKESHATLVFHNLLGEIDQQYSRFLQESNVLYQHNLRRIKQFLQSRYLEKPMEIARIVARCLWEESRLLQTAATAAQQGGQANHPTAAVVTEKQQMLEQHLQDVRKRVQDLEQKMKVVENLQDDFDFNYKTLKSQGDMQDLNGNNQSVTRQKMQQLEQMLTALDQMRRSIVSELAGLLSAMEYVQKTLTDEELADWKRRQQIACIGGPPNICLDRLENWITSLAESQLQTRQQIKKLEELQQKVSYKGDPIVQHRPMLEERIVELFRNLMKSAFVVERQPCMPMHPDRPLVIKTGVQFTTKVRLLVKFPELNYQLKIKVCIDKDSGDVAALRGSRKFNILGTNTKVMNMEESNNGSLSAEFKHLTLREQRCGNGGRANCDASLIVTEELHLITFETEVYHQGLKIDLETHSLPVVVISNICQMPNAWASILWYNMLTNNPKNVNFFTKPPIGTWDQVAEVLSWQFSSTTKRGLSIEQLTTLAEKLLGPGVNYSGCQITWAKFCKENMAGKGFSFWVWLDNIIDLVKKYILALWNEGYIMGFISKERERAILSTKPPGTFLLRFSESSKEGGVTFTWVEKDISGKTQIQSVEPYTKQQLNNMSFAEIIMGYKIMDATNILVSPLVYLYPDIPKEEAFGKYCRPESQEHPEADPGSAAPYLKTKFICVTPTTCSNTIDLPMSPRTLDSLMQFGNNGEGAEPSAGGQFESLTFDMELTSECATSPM

`C[C@H](Oc1ccc(-c2nc3nc(C4=CCN(C(=O)OC(C)(C)C)CC4)ccc3[nH]2)cc1)c1ccccc1` [W2014-S] was tested, and the cell migration (A549 cells [1]) was “remarkably inhibited the migration”, the “effect on gefitinib-induced apoptosis” value (PC-9/GR cells; W2014-S 1 μM + gefitinib 2 μM) was “significantly enhanced gefitinib-induced apoptosis” and the Q1 (PC-9/GR cells; [4]) was 0.164%. It also gave a Q2 (PC-9/GR cells; [4]) of 4.50%, a Q3 (PC-9/GR cells; [4]) of 3.47% and a Q4 (PC-9/GR cells; [4]) of 91.9%. The “phosphorylation level of STAT3” value (pY705-STAT3; A549, 0, 1, 3 and 5 μM, 24 h) was “inhibit the phosphorylation level of STAT3 in a dose dependent manner, and more potent than W2014-R”, the “phosphorylation of STAT3 at Y705, time course” value (pY705-STAT3; A549, 1 μM, 0-24 h) was “inhibited after 1 h treatment” and the pIC50 (PC-9 cells) was 5.63. The “dimerization of HA-STAT3 and Flag-STAT3” value (STAT3-STAT3 dimerization) was “inhibited by W2014-S in a dosage-dependent manner”, the apoptosis (A549 cells [2]) was “induced apoptosis” and the “STAT3-dependent luciferase reporter activity induced by IL-6” value (STAT3) was “dose-dependently inhibited”. For the same compound, the “level of pY705-STAT3 and pY1068-EGFR” value [3] was “reduced the phosphorylation of STAT3” and the “expression of STAT3 downstream genes Bcl-2, Bcl-xL and c-Myc” value (Bcl-2, Bcl-xL and c-Myc) was “inhibited by W2014-S dose-dependently”.
